According to PubChem BioAssay AID292 (DTP/NCI, 2004):
Several values for one entry are separate records, joined by “and”; a condition that tells them apart may be missing. Identical values can stand only once. Toxic doses and inconclusive results are not listed. How the source made its calls: active means survival T/C of 150% or more; inactive means T/C below 125% in these data.

Tested on: B6C3F1 mice, ip Sarcoma M5076, median survival T/C
Experiment: NCI In Vivo Anticancer Drug Screen. Data for tumor model Sarcoma M5076 (intraperitoneal) in B6C3F1 mice
Settings: endpoint: median survival time, schedule: Q04DX004 (ip), higher = longer survival
How it was run: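 Mice carrying the transplanted tumour received compound treatment. Survival was recorded, and each value is the treated-group measurement divided by that of the vehicle-dosed control group.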

[1] = dose: 37.5 mg/kg/injection, vehicle: water
[2] = dose: 75.0 mg/kg/injection, vehicle: water
[3] = dose: 150.0 mg/kg/injection, vehicle: water
[4] = dose: 300.0 mg/kg/injection, vehicle: water
[5] = dose: 600.0 mg/kg/injection, vehicle: water
[6] = dose: 25.0 mg/kg/injection, vehicle: Klucel (hydroxypropylcellulose) (HPC)
[7] = dose: 37.5 mg/kg/injection, vehicle: saline with Tween-80
[8] = dose: 75.0 mg/kg/injection, vehicle: saline with Tween-80
[9] = dose: 150.0 mg/kg/injection, vehicle: saline with Tween-80
[10] = dose: 25.0 mg/kg/injection, vehicle: suspension in saline
[11] = dose: 50.0 mg/kg/injection, vehicle: suspension in saline
[12] = dose: 100.0 mg/kg/injection, vehicle: suspension in saline
[13] = dose: 50.0 mg/kg/injection, vehicle: Klucel (hydroxypropylcellulose) (HPC)
[14] = dose: 100.0 mg/kg/injection, vehicle: Klucel (hydroxypropylcellulose) (HPC)
[15] = dose: 200.0 mg/kg/injection, vehicle: Klucel (hydroxypropylcellulose) (HPC)
[16] = dose: 25.0 mg/kg/injection, vehicle: saline with Tween-80
[17] = dose: 50.0 mg/kg/injection, vehicle: saline with Tween-80
[18] = dose: 100.0 mg/kg/injection, vehicle: saline with Tween-80
[19] = dose: 200.0 mg/kg/injection, vehicle: saline with Tween-80
[20] = dose: 400.0 mg/kg/injection, vehicle: saline with Tween-80
[21] = dose: 400.0 mg/kg/injection, vehicle: Klucel (hydroxypropylcellulose) (HPC)

Measured: T/C

NC(=O)C1=NOC(C(N)=O)C1C1OC(CO)C(O)C1O (stereo unspecified)
inactive: [1] 100 % of control | [2] 98 % of control | [3] 103 % of control | [4] 106 % of control | [5] 100 % of control

COC1CC2C=C(C)/C=C/C=C/C(=O)NC(c3ccccc3)C/C=C/CCC(O)CC(=O)C2=C1O (stereo unspecified)
inactive: dose: 3.12 mg/kg/injection, vehicle: Klucel (hydroxypropylcellulose) (HPC) 112 % of control | dose: 6.25 mg/kg/injection, vehicle: Klucel (hydroxypropylcellulose) (HPC) 118 % of control | dose: 12.5 mg/kg/injection, vehicle: Klucel (hydroxypropylcellulose) (HPC) 110 % of control | [6] 123 % of control

Cc1ccc(/C=C2/N=C([Se])N(C)C2=O)cc1
inactive: [7] 124 % of control | [8] 98 % of control | [9] 89 % of control

CN1C(=O)C2CC(O)C(SC3CC4C(=O)N(C)C(=O)C4CC3O)CC2C1=O (stereo unspecified)
inactive: [1] 101 % of control | [2] 105 % of control | [3] 102 % of control | [4] 97 % of control | [5] 107 % of control

N=C(N)c1ccc(Nc2ccc(-c3cc4ccc(C(=N)N)cc4[nH]3)cc2)cc1
inactive: dose: 3.75 mg/kg/injection, vehicle: Klucel (hydroxypropylcellulose) (HPC) 115 % of control

C=C(C)/C([O-])=N/[N+](C)(C)CC(O)CCCCCCCCCCCC (stereo unspecified)
inactive: dose: 12.5 mg/kg/injection, vehicle: suspension in saline 97 % of control | [10] 95 % of control | [11] 100 % of control | [12] 92 % of control

COc1ccc([N+](=O)[O-])cc1NC(=O)C1C(=O)C(=O)N(c2cc([N+](=O)[O-])ccc2OC)C1=O (stereo unspecified)
inactive: [13] 100 % of control | [14] 107 % of control | [15] 100 % of control

CCCCCNc1ncnc2c(C)[nH]nc12
inactive: [6] 105 % of control | [13] 97 % of control | [14] 103 % of control | [15] 88 % of control

c1ccc2[nH]c(CN(CCN(Cc3nc4ccccc4[nH]3)Cc3nc4ccccc4[nH]3)Cc3nc4ccccc4[nH]3)nc2c1
inactive: dose: 3.12 mg/kg/injection, vehicle: other 103 % of control | dose: 6.25 mg/kg/injection, vehicle: other 108 % of control | dose: 12.5 mg/kg/injection, vehicle: other 100 % of control

COc1oc(C2C/C(=C/C(C)=C/C(C)=C/C(C)=C/c3ccc([N+](=O)[O-])cc3)CO2)c(C)c(=O)c1C (stereo unspecified)
inactive: dose: 1.0 mg/kg/injection, vehicle: saline 100 % of control | dose: 2.0 mg/kg/injection, vehicle: saline 102 % of control and 104 % of control | dose: 4.0 mg/kg/injection, vehicle: saline 102 % of control and 103 % of control | dose: 8.0 mg/kg/injection, vehicle: saline 106 % of control and 115 % of control

O=C(N/N=C/c1ccco1)c1ccc(OCc2nc3ccccc3[nH]2)cc1
inactive: [16] 97 % of control | [17] 95 % of control | [18] 96 % of control | [19] 90 % of control

c1ccc(-c2nc3cc4c(cc3n3cccc23)oc2ccccc24)cc1
inactive: [16] 90 % of control | [17] 101 % of control | [20] 91 % of control

CCn1c2ccc(N)cc2c2c3ncc4cccn4c3ccc21
inactive: [7] 101 % of control | [8] 94 % of control | [9] 97 % of control | dose: 300.0 mg/kg/injection, vehicle: saline with Tween-80 89 % of control

O=c1[nH]c2cc3c(cc2n2cccc12)oc1ccccc13
inactive: [17] 90 % of control | [18] 98 % of control | [20] 90 % of control

N=C1C=CC2C(=Nc3ccccc3[N+]2=O)N1CCO (stereo unspecified)
inactive: [16] 91 % of control | [17] 103 % of control | [18] 104 % of control | [19] 100 % of control

Cc1nc2ccccc2c2nnc(SCC(=O)N(Cc3ccccc3)c3ccccc3)n12
inactive: [6] 98 % of control | [13] 115 % of control | [14] 114 % of control | [15] 104 % of control | [21] 112 % of control

NNC(=O)c1ccc(OCc2nc3ccccc3[nH]2)cc1
inactive: [16] 99 % of control | [17] 102 % of control | [18] 101 % of control | [19] 106 % of control | [20] 97 % of control

O=C1NCC(Br)C(=O)N1 (stereo unspecified)
inactive: dose: 50.0 mg/kg/injection, vehicle: saline + Tween-80 + alcohol 95 % of control | dose: 100.0 mg/kg/injection, vehicle: saline + Tween-80 + alcohol 97 % of control | dose: 200.0 mg/kg/injection, vehicle: saline + Tween-80 + alcohol 94 % of control | dose: 400.0 mg/kg/injection, vehicle: saline + Tween-80 + alcohol 120 % of control

COc1cc(C#N)c(NC(=S)N2CCN(C(=O)c3ccco3)CC2)cc1OC
inactive: [13] 98 % of control | [14] 111 % of control | [15] 103 % of control | [21] 90 % of control

CN(C)[C@@H]1C(=O)C(C(N)=O)=C(O)[C@@]2(O)C(=O)C3=C(O)c4c(O)ccc(Cl)c4[C@@](C)(O)[C@H]3C[C@@H]12
inactive: [10] 86 % of control | [11] 96 % of control | [12] 91 % of control

Cc1c(O)c(O)c(C)c(CCN)c1O
inactive: dose: 31.0 mg/kg/injection, vehicle: saline with Tween-80 100 % of control | dose: 62.0 mg/kg/injection, vehicle: saline with Tween-80 104 % of control | dose: 112.0 mg/kg/injection, vehicle: saline with Tween-80 94 % of control

COc1ccc(N2CCCSC2=S)cc1
inactive: dose: 31.25 mg/kg/injection, vehicle: saline + Tween-80 + alcohol 97 % of control | dose: 62.5 mg/kg/injection, vehicle: saline + Tween-80 + alcohol 91 % of control

Clc1cccc(N(C2=NCCS2)C2=NCCS2)c1
inactive: [13] 107 % of control | [14] 101 % of control | [15] 101 % of control | [21] 96 % of control | dose: 800.0 mg/kg/injection, vehicle: Klucel (hydroxypropylcellulose) (HPC) 92 % of control

O=C1c2cccc(NCCCNCCO)c2C(=O)c2cccc(NCCCNCCO)c21
inactive: dose: 12.5 mg/kg/injection, vehicle: acid diluted with saline 116 % of control | dose: 25.0 mg/kg/injection, vehicle: acid diluted with saline 99 % of control | dose: 50.0 mg/kg/injection, vehicle: acid diluted with saline 91 % of control

NC12CC3CC(CC(C3)C1)C2
inactive: [16] 100 % of control | [17] 94 % of control

CC1=C(/C=C/C(C)=C/C=C/C(C)=C/C(=O)Nc2ccc(O)cc2)C(C)(C)CCC1
inactive: [16] 97 % of control | [17] 96 % of control | [18] 105 % of control | [19] 95 % of control | [20] 97 % of control

N=C(N)SCc1cccc2c(=O)cc(-c3ccccc3)oc12
inactive: dose: 50.0 mg/kg/injection, vehicle: saline 98 % of control | [11] 114 % of control | dose: 100.0 mg/kg/injection, vehicle: saline 102 % of control | [12] 104 % of control | dose: 144.0 mg/kg/injection, vehicle: suspension in saline 105 % of control and 112 % of control | dose: 200.0 mg/kg/injection, vehicle: saline 106 % of control | dose: 200.0 mg/kg/injection, vehicle: suspension in saline 104 % of control | dose: 240.0 mg/kg/injection, vehicle: suspension in saline 101 % of control and 109 % of control | dose: 400.0 mg/kg/injection, vehicle: saline 102 % of control | dose: 666.67 mg/kg/injection, vehicle: suspension in saline 101 % of control | dose: 1111.11 mg/kg/injection, vehicle: suspension in saline 100 % of control
